Key:
HACAT keratinocytes = test: Inhibition of TGFa- or EGF-specific proliferation of HACAT keratinocytes (3H-thymidine incorporation); type: cell-based; conditions: test 1: HaCaT cells stimulated with recombinant human TGFa or EGF, two days
Description: 1. Inhibition of TGFa- or EGF-specific proliferation of HACAT keratinocytes:
The spontaneously immortalized aneuploid human keratinocyte HaCaT cell line, which has a transformed phenotype in vitro but remains non-tumorigenic, is grown in DMEM H21 medium supplemented with 5 % FCS and 2.5 % glutamine. 5 ml aliquots of a cell suspension adjusted to 2 x 10^5 cells/ml are seeded into 50 ml culture flasks and the cells are cultured for 2 to 3 days in DMEM medium supplemented with 5 % FCS. When 90-100 % confluence is attained cells are trypsinized, washed, suspended in KBM medium supplemented with 0.2 % dialyzed FCS (Gibco) and Ca^++ to a final concentration of 0.06 mM, and 2 x 10^4 cells are seeded into 96 wells cell culture plates. Proliferation is stimulated with recombinant human TGFa or EGF (reconstituted in 0.1 M acetic acid) at various concentrations in the presence of inhibitors. Cells are grown for two days at 37 / 5 % CO2. During the last 16 hours incorporation of ^3H-thymidine (1 µ.Ci/well) is performed. Cells are washed with ice-cold PBSdef. 3 times and trichloroacetic acid twice, solubilized in 100 µl of 0.1 N NaOH containing 1 % SDS, and radioactivity is counted. Inhibition of cell proliferation is expressed as % of the control.

[1] = tested on: oxazolone-induced allergic contact dermatitis; test: Inhibition of oxazolone-induced allergic contact dermatitis in the mouse (pinnal swelling, topical application); type: in vivo; conditions: test 3: mouse, two applications, concentration of 0.4 %, relative to vehicle (ethanol/acetone 7:3)
Description: 3. Inhibition of oxazolone-induced allergic contact dermatitis in the mouse
Sensitization is induced by a single application of 2 % 6 oxazolone (10 µl) onto the abdominal skin of mice (8 animals per group). Hypersensitivity reaction causing pinnal swelling is elicited by a second exposure to 2 % oxazolone applied to one pinna of each animal after 8 days.
Inhibition of pinnal swelling is achieved by two topical applications of test compound (30 minutes before and after elicitation of the challenge reaction). Efficacy is determined by the difference of pinnal weights of animals treated with the drug and with the vehicle (ethanol/acetone 7:3), respectively, and expressed in % of swelling with vehicle application alone.

O=c1c(-c2ccc(O)cc2)coc2cc(O)cc(O)c12 [genistein]
IC50 (HACAT keratinocytes; Homo sapiens, HaCaT): 5 to 50 µM
IC50 (HACAT keratinocytes): 5 µM

COC(=O)c1cc(OCc2cc(OC)ccc2OC)ccc1O [Example 1, 5-(2,5-Dimethoxybenzyloxy)-2-hydroxybenzoic acid methyl ester]
IC50 (HACAT keratinocytes; Homo sapiens, HaCaT): < 1 µM
inhibition of swelling [1]: 46%

N#CC(=Cc1ccc(O)c(O)c1)C(N)=S [AG213]
IC50 (HACAT keratinocytes): 5 to 50 µM
